{"source": "patent US20240279202A1", "about": "(NURIX THERAPEUTICS, INC., priority 2021, published 2024)", "biological_target": "T1, ITK (Homo sapiens, UniProt Q08881)", "T1 sequence (Q08881 1-620)": "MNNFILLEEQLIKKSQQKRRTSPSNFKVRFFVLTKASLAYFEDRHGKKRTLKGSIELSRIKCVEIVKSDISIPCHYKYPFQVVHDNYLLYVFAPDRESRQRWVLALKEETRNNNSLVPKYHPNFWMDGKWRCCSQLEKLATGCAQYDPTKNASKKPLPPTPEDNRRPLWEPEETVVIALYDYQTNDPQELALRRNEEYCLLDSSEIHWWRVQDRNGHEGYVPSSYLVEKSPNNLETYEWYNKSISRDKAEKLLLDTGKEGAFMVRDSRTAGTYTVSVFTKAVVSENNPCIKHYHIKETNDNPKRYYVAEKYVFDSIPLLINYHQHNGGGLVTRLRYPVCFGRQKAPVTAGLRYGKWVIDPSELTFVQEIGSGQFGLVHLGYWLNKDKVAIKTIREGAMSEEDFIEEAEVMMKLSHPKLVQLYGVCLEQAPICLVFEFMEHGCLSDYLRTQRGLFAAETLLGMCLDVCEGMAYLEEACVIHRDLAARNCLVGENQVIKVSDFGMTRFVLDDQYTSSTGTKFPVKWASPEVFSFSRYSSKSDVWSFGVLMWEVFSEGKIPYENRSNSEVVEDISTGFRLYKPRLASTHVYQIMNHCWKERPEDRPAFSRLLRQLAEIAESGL", "assay": "ITK degradation HiBiT assay", "assay_type": "cell-based", "set-up": "expressed in transfected cells; host or cells: Molt4 (ATCC CRL-1552), monoclonal clone 1C10, engineered to carry the HiBiT tag", "settings": "4 hrs; for Dmax: MOLT-4, C-terminal HiBiT-tagged Molt4 cells", "description": "Itk Degradation Hibit Assay\nCompounds provided herein were assayed in vitro with ITK HiBit cell lines. Compound dilution series (11-point, 5 fold dilutions in DMSO, columns 2-12 with replicate in rows A/B, C/D, E/F, G,H at 2000× the final required concentrations were prepared in 96 well plates (Falcon, cat. no. 353077). Column 1, rows A-H were control DMSO. The 2000× solutions ranged from 2 mM to 1.024 nM (final assay concentration range 1 μM to […]). The 2000× solutions were added to cells in […], for a final DMSO concentration of 0.5% and final assay compound concentration of 1×. For the cells, C-terminal HiBiT-tagged Molt4 cells (ATCC CRL-1552, monoclonal cell line clone 1C10) were plated at 1×10^6 cells/mL, 100 μL/well ([…]) in complete RPMI (10% FBS, 1% L-glutamine). The cells were incubated with compound 10 and compound 17 for 4 hrs at […]/6% CO2.\nFollowing incubation, 100 μL of complete Nano-Glo HiBiT Lytic Detection Reagent (Nano-Glo HiBiT Lytic Buffer with 1:50 Nano-Glo HiBiT Lytic Substrate and 1:100 LgBiT Protein; Promega cat. no. N3040) was added. Cells were further incubated for 10 min at room temperature (RT). Luminescence units (LU) were read on an EnVision plate reader (Perkin Elmer, 0.1 sec per well). Percent ITK remaining per sample was calculated as follows: […]\nUsing Graphpad Prism, % ITK remaining values were plotted as a function of compound concentration. To determine DC50 and Dmax values, resulting curves were fit to the Prism curve-fitting equation “log(inhibitor) vs response—Variable slope (four parameters)” (reported best fit value IC50 used as DC50). ITK was measured with antibody-based MSD (Meso-Scale Discovery) assays shown below.", "key": {"[1]": {"settings": "C-terminal HiBiT-tagged Molt4 cells"}}}
{"smiles": "C[C@@]12Cc3[nH]nc(C(=O)Nc4cnn(C5CCN(CC6CCN(c7ccc([C@@H]8CCC(=O)NC8=O)cc7)CC6)CC5)c4)c3C[C@@H]1C2(F)F", "note": "[Compound 116, (4aS,5aR)-N-(1-{1-[(1-{4-[(3S)-2,6-dioxopiperidin-3-yl]phenyl}piperidin-4-yl)methyl]piperidin-4-yl}-1H-pyrazol-4-yl)-5,5-difluoro-5a-methyl-1H,4H,4aH,5H,5aH,6H-cyclopropa[f]indazole-3-carboxamide]", "values": [{"measurement": "DC50", "setting": "[1]", "result": 0.9, "unit": "nM"}, {"measurement": "HiBiT DMax (%)", "setting": "[1]", "result": 89, "unit": "%"}]}
{"smiles": "CN(C(=O)C1CCN(CC2CCN(c3ccc(C4CCC(=O)NC4=O)cn3)CC2)CC1)c1ccc2cc(-c3n[nH]c4c3C[C@@H]3C(F)(F)[C@]3(C)C4)[nH]c2c1", "note": "(stereo partly drawn) [Compound 74, N-(2-((4aS,5aR)-5,5-difluoro-5a-methyl-1,4,4a,5,5a,6-hexahydrocyclopropa[f]indazol-3-yl)-1H-indol-6-yl)-1-((1-(5-(2,6-dioxopiperidin-3-yl)pyridin-2-yl)piperidin-4-yl)methyl)-N-methylpiperidine-4-carboxamide]", "values": [{"measurement": "DC50", "setting": "[1]", "result": 10.5, "unit": "nM"}]}
{"smiles": "Cc1cc(N2CCC(CN3CCN(C(=O)c4ccc5cc(-c6n[nH]c7c6CCC(C)(C)C7)[nH]c5c4)CC3)CC2)ccc1C1CCC(=O)NC1=O", "note": "(stereo not drawn) [Compound 182]", "values": [{"measurement": "Dmax", "result": 70, "unit": "%"}]}
{"smiles": "Cn1c(=O)n(C2CCC(=O)NC2=O)c2ccc(N[C@H]3CC[C@H](C(=O)N4CCC(n5cc(NC(=O)c6n[nH]c7c6C[C@@H]6C(F)(F)[C@]6(C)C7)cn5)CC4)CC3)cc21", "note": "(mixture of isomers) [Compound 169]", "values": [{"measurement": "Dmax", "result": 80, "unit": "%"}]}
{"smiles": "CN(CC1CCN(C(=O)c2ccc3cc(-c4n[nH]c5c4CCC(C)(C)C5)[nH]c3c2)CC1)C1CCN(c2ccc(C3CCC(=O)NC3=O)cn2)CC1", "note": "(stereo not drawn) [Compound 63, 3-(6-(4-(((1-(2-(6,6-dimethyl-4,5,6,7-tetrahydro-1H-indazol-3-yl)-1H-indole-6-carbonyl)piperidin-4-yl)methyl)(methyl)amino)piperidin-1-yl)pyridin-3-yl)piperidine-2,6-dione]", "values": [{"measurement": "DC50", "setting": "[1]", "result": 0.003, "unit": "nM"}, {"measurement": "Dmax", "result": 80, "unit": "%"}]}
{"smiles": "C[C@@]12Cc3[nH]nc(-c4cc5cc(C(=O)N6CCN(CC7(F)CCN(c8ccc(C9CCC(=O)NC9=O)cc8)CC7)CC6)ccc5[nH]4)c3C[C@@H]1C2(F)F", "note": "(stereo partly drawn) [Compound 141]", "values": [{"measurement": "Dmax", "result": 86, "unit": "%"}]}
{"smiles": "C[C@H]1CN(C(=O)c2ccc3cc(-c4n[nH]c5c4CCC(C)(C)C5)[nH]c3c2)CCN1CC1CCN(c2ccc(C3CCC(=O)NC3=O)cc2)CC1", "note": "(mixture of isomers) [Compound 152]", "values": [{"measurement": "Dmax", "result": 80, "unit": "%"}]}
{"smiles": "C[C@@]12Cc3[nH]nc(-c4cc5ccc(C(=O)N6CCN(CC7CCN(c8ccc(C9CCC(=O)NC9=O)cc8)CC7)CC6)cc5[nH]4)c3C[C@@H]1C2", "note": "(mixture of isomers) [Compound 225, (3RS)-3-(4-{4-[(4-{2-[(4aS,5aR)-5a-Methyl-1H,4H,4aH,5H,6H-cyclopropa[f]indazol-3-yl]-1H-indole-6-carbonyl}piperazin-1-yl)methyl]piperidin-1-yl}phenyl)piperidine-2,6-dione]", "values": [{"measurement": "DC50", "setting": "[1]", "result": 8.5, "unit": "nM"}, {"measurement": "Dmax", "result": 84, "unit": "%"}]}
{"smiles": "C[C@@]12Cc3[nH]nc(C(=O)Nc4cnn(C5CCN(CC6CCN(c7ccc(C8CCC(=O)NC8=O)cc7F)CC6)CC5)c4)c3C[C@@H]1C2(F)F", "note": "(mixture of isomers) [Compound 112, (4aS,5aR)-N-(1-{1-[(1-{4-[(3RS)-2,6-dioxopiperidin-3-yl]-2-fluorophenyl}piperidin-4-yl)methyl]piperidin-4-yl}-1H-pyrazol-4-yl)-5,5-difluoro-5a-methyl-1H,4H,4aH,5H,5aH,6H-cyclopropa[f]indazole-3-carboxamide]", "values": [{"measurement": "DC50", "setting": "[1]", "result": 0.14, "unit": "nM"}, {"measurement": "Dmax", "result": 87, "unit": "%"}]}
{"smiles": "C[C@@]12Cc3[nH]nc(C(=O)Nc4ccc(C5CCN(CC6CCN(c7ccc(C8CCC(=O)NC8=O)cc7)CC6)CC5)nc4)c3C[C@@H]1C2(F)F", "note": "(stereo partly drawn) [Compound 110, (4aS,5aR)-N-(6-(1-((1-(4-(2,6-dioxopiperidin-3-yl)phenyl)piperidin-4-yl)methyl)piperidin-4-yl)pyridin-3-yl)-5,5-difluoro-5a-methyl-1,4,4a,5,5a,6-hexahydrocyclopropa[f]indazole-3-carboxamide]", "values": [{"measurement": "DC50", "setting": "[1]", "result": 1.7, "unit": "nM"}, {"measurement": "Dmax", "result": 88, "unit": "%"}]}
{"smiles": "C[C@H]1CN(c2ccc(C3CCC(=O)NC3=O)cn2)CCN1CC1CCN(C(=O)c2ccc3cc(-c4n[nH]c5c4CCC(C)(C)C5)[nH]c3c2)CC1", "note": "(stereo partly drawn) [Compound 190]", "values": [{"measurement": "Dmax", "result": 86, "unit": "%"}]}
{"smiles": "C[C@@]12Cc3[nH]nc(C(=O)Nc4cnn(CC5CCN(C(=O)C6CCN(c7ccc(C8CCC(=O)NC8=O)cc7)CC6)CC5)c4)c3C[C@@H]1C2(F)F", "note": "(mixture of isomers) [Compound 173]", "values": [{"measurement": "Dmax", "result": 87, "unit": "%"}]}
{"smiles": "C[C@@]12Cc3[nH]nc(C(=O)Nc4cnn([C@H]5CCN(CC6CCN(c7ccc(C(=O)N[C@H]8CCC(=O)NC8=O)nc7)CC6)C[C@@H]5F)c4)c3C[C@@H]1C2(F)F", "note": "[Compound 93, (4aS,5aR)-N-(1-((3S,4S)-1-((1-(6-(((S)-2,6-dioxopiperidin-3-yl)carbamoyl)pyridin-3-yl)piperidin-4-yl)methyl)-3-fluoropiperidin-4-yl)-1H-pyrazol-4-yl)-5,5-difluoro-5a-methyl-1,4,4a,5,5a,6-hexahydrocyclopropa[f]indazole-3-carboxamide]", "values": [{"measurement": "DC50", "setting": "[1]", "result": 1.9, "unit": "nM"}, {"measurement": "Dmax", "result": 97, "unit": "%"}]}
{"smiles": "C[C@@]12Cc3[nH]nc(C(=O)Nc4cnn([C@@H]5CCN(CC6CCN(c7ccc([C@H]8CCC(=O)NC8=O)cc7)CC6)C[C@H]5F)c4)c3C[C@@H]1C2(F)F", "note": "(single isomer, unassigned) [Compound 96]", "values": [{"measurement": "DC50", "setting": "[1]", "result": 1.1, "unit": "nM"}, {"measurement": "Dmax", "result": 89, "unit": "%"}]}
{"smiles": "C[C@@]12Cc3[nH]nc(C(=O)Nc4cnn(C5CN(C(=O)C6CN(c7ccc(C8CCC(=O)NC8=O)cn7)C6)C5)c4)c3C[C@@H]1C2(F)F", "note": "(stereo partly drawn) [Compound 55, (4aS,5aR)-N-(1-(1-(1-(5-(2,6-dioxopiperidin-3-yl)pyridin-2-yl)azetidine-3-carbonyl)azetidin-3-yl)-1H-pyrazol-4-yl)-5,5-difluoro-5a-methyl-1,4,4a,5,5a,6-hexahydrocyclopropa[f]indazole-3-carboxamide]", "values": [{"measurement": "DC50", "setting": "[1]", "result": 1.8, "unit": "nM"}]}
{"smiles": "CC1(C)CCc2c(-c3cc4ccc(C(=O)N5CCC(CN6CCCc7cc(C8CCC(=O)NC8=O)ccc76)CC5)cc4[nH]3)n[nH]c2C1", "note": "(stereo not drawn) [Compound 199]", "values": [{"measurement": "Dmax", "result": 52, "unit": "%"}]}
{"smiles": "C[C@@]12Cc3[nH]nc(-c4cc5cc(F)c(C(=O)N6CCN(CC7CCN(c8ccc(C(=O)N[C@H]9CCC(=O)NC9=O)nc8)CC7)CC6)cc5[nH]4)c3C[C@@H]1C2(F)F", "note": "[Compound 144]", "values": [{"measurement": "Dmax", "result": 78, "unit": "%"}]}
{"smiles": "CC1(C)CCc2c(-c3cc4ccc(C(=O)N5CCC(CN6CCN(c7ccc(C8CCC(=O)NC8=O)cn7)CC6)CC5)cc4[nH]3)n[nH]c2C1", "note": "(stereo not drawn) [Compound 59, 3-(6-(4-((1-(2-(6,6-dimethyl-4,5,6,7-tetrahydro-1H-indazol-3-yl)-1H-indole-6-carbonyl)piperidin-4-yl)methyl)piperazin-1-yl)pyridin-3-yl)piperidine-2,6-dione]", "values": [{"measurement": "DC50", "setting": "[1]", "result": 0.05, "unit": "nM"}, {"measurement": "Dmax", "result": 81, "unit": "%"}]}
{"smiles": "C[C@@H]1CN(C(=O)c2ccc3cc(-c4n[nH]c5c4C[C@@H]4C(F)(F)[C@]4(C)C5)[nH]c3c2)CCN1CC1CCN(c2ccc(C3CCC(=O)NC3=O)cc2F)CC1", "note": "(stereo partly drawn) [Compound 161]", "values": [{"measurement": "Dmax", "result": 85, "unit": "%"}]}
{"smiles": "C[C@@]12Cc3[nH]nc(C(=O)Nc4cnn(C5CCN(C(=O)C6CCN(c7ccc(C(=O)NC8CCC(=O)NC8=O)nc7)CC6)CC5)c4)c3C[C@@H]1C2(F)F", "note": "(mixture of isomers) [Compound 180]", "values": [{"measurement": "Dmax", "result": 72, "unit": "%"}]}
{"smiles": "C[C@@]12Cc3[nH]nc(C(=O)Nc4cnn([C@H]5CCN(CC6CCN(c7ccc([C@H]8CCC(=O)NC8=O)cc7)CC6)C[C@@H]5F)c4)c3C[C@@H]1C2(F)F", "note": "(single isomer, unassigned) [Compound 95]", "values": [{"measurement": "DC50", "setting": "[1]", "result": 0.6, "unit": "nM"}, {"measurement": "Dmax", "result": 90, "unit": "%"}]}
